Measurements taken from PubChem BioAssay (NCI).
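The compound was tested at five concentrations on cells cultured in 96-well plates, with a 48-hour exposure period. GI50 is the concentration that inhibits growth by half. TGI is the concentration that stops growth completely.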

What was measured:
Assay in all cases: inhibition of tumour cell growth, NCI panel, 48 h
UACC-257 melanoma = tested on: UACC-257 melanoma
OVCAR-4 ovarian = tested on: OVCAR-4 ovarian
NCI/ADR-RES ovarian = tested on: NCI/ADR-RES ovarian
K-562 leukemia = tested on: K-562 leukemia
SNB-19 CNS = tested on: SNB-19 CNS
UO-31 renal = tested on: UO-31 renal
SK-OV-3 ovarian = tested on: SK-OV-3 ovarian
SNB-75 CNS = tested on: SNB-75 CNS

SMILES	TGI (UACC-257 melanoma) [µM]	TGI (OVCAR-4 ovarian) [µM]	TGI (NCI/ADR-RES ovarian) [µM]	TGI (K-562 leukemia) [µM]	TGI (SNB-19 CNS) [µM]	TGI (UO-31 renal) [µM]	TGI (SK-OV-3 ovarian) [µM]	TGI (SNB-75 CNS) [µM]	GI50 (UACC-257 melanoma) [µM]	GI50 (NCI/ADR-RES ovarian) [µM]	GI50 (UO-31 renal) [µM]	GI50 (SK-OV-3 ovarian) [µM]
CC(=O)OCCn1c(Cc2ccc([N+](=O)[O-])cc2)nn(C(C)=O)c1=O	> 100	> 100	> 100	> 100	> 100	> 100	> 100					
Cc1cc2c3c(ccc4ncc(c43)CN2c2ccc(NS(C)(=O)=O)cc2)[nH]1	> 100	> 100	> 100	> 100	10.4	78.4	97.5	44.3				
COc1cc(CNC(=O)CCCCCCCC/C=C/Br)ccc1O	> 10	> 10	> 10	> 10	> 10	> 10	> 10	> 10				
COC(=O)c1ccccc1CC1Cc2cc3c(cc2C1)CCC3	73.1	> 100	> 100	61.1	> 100	> 100	> 100	> 100				
CCCNc1[nH]c(C(C)=O)c(N)c1C(=S)Nc1ccccc1	> 100	74.5	> 100	> 100	> 100	> 100	> 100	> 100				
COc1cc2cc(C(=O)N3CC(COS(C)(=O)=O)c4c3cc([N+](=O)[O-])c3ccccc43)[nH]c2c(OC)c1OC (configuration not stated)	> 31.6	> 31.6	> 31.6	> 100	> 31.6	> 31.6	> 100	> 31.6				
Clc1ccc2c(NCCNc3nc(-c4ccccc4)cc(-c4ccccc4)n3)ccnc2c1	3.98		3.6			3.01	3.33		2.03	1.77	1.54	1.75
OCCOCCO[P+]1(OCCOCCO)n2c3ccc2C(c2ccccc2)=C2C=CC(=N2)C(c2ccccc2)=c2ccc(n21)=C(c1ccccc1)C1=NC(=C3c2ccccc2)C=C1	0.124	1.05	> 67.5				1.79					
CC(=O)Oc1ccc(-c2cc3ccccc3oc2=O)cc1OC(C)=O	> 100	> 100	> 100	> 100	> 100	> 100		> 100				
CC(C)CCNC(=O)c1ccc(CNC(=O)/C=C/c2ccc(-c3ccccc3[N+](=O)[O-])o2)cc1	> 100	55.3	> 100	> 100	> 100	> 100	> 100	> 100				
CC[n+]1[b-](C(C)(C)C)n(/N=C(\C)C(C)(C)C)[b-](C(C)(C)C)[n+]1CC	> 100	> 100	> 100	> 100	> 100	> 100		> 100				
Nc1nc(Cl)c2ncn(Cc3ccccc3CCl)c2n1	38.2	6.47	34.6	> 100	27.5	45	52.1	23.8				
Nc1nc(Nc2ccc(Cl)cc2)sc1C(=O)c1cc2ccccc2oc1=O	> 100	> 100	> 100	> 100	> 100	> 100	> 100	68.8				
